Assay results: US20100160324A1, “PYRAZOLE DERIVATIVES AS THAT MODULATE THE ACTIVITY OF CDK, GSK AND AURORA KINASES” (ASTEX THERAPEUTICS LIMITED, priority 2004, published 2010)
Each block holds one molecule with its values, some of them ahead of it.

How the values were obtained:
[1] = tested on: malignant cells from B-cell chronic lymphocytic leukemia (B-CLL); settings: in vitro; cited from earlier work
[2] = target: T1, CDK1/CyclinB (Homo sapiens, UniProt P06493); test: Activated CDK1/CyclinB activity assay; format: biochemical; settings: read-out: IC50 against CDK1 activity
T1 construct: purchased Upstate Discovery
Method: Measurement of Activated CDK1/Cycling Activity Assay (IC50)
CDK1/CyclinB assay is identical to the CDK2/CyclinA above except that CDK1/CyclinB (Upstate Discovery) is used and the enzyme is diluted to 6.25 nM.

[3] = target: Activated CDK2/CyclinA (Homo sapiens, UniProt P24941); test: Activated CDK2/CyclinA kinase inhibitory activity assay; format: biochemical; settings: read-out: IC50 against CDK2 activity
Method: Measurement of Activated CDK2/CyclinA Kinase Inhibitory Activity Assay (IC50)
Compounds of the invention were tested for kinase inhibitory activity using the following protocol.
Activated CDK2/CyclinA (Brown et al, Nat. Cell Biol., 1, pp 438-443, 1999; Lowe, E. D., et al Biochemistry, 41, pp 15625-15634, 2002) is diluted to 125 pM in 2.5× strength assay buffer (50 mM MOPS pH 7.2, 62.5 mM β-glycerophosphate, 12.5 mM EDTA, 37.5 mM MgCl2, […], 2.5 mM DTT, 2.5 mM sodium orthovanadate, 0.25 mg/ml bovine serum albumin), and 10 μl mixed with 10 μl of histone substrate mix (60 μl bovine histone H1 (Upstate Biotechnology, 5 mg/ml), 940 μl H2O, 35μ Ci γ^33P-ATP) and added to 96 well plates along with 5 μ of various dilutions of the test compound in DMSO (up to 2.5%). The reaction is allowed to proceed for 2 to 4 hours before being stopped with an excess of ortho-phosphoric acid (5 μl at 2%).
γ^33P-ATP which remains unincorporated into the histone H1 is separated from phosphorylated histone H1 on a Millipore MAPH filter plate. The wells of the MAPH plate are wetted with 0.5% orthophosphoric acid, and then the results of the reaction are filtered with a Millipore vacuum filtration unit through the wells. […] Once the filters have dried, 20 μl of Microscint 20 scintillant is added, and then counted on a Packard Topcount for 30 seconds. […]

[4] = tested on: treatment-refractory primary Acute Myelogenous Leukemia (AML) cells from patients; settings: cited from earlier work

T1 sequence (P06493 whole entry): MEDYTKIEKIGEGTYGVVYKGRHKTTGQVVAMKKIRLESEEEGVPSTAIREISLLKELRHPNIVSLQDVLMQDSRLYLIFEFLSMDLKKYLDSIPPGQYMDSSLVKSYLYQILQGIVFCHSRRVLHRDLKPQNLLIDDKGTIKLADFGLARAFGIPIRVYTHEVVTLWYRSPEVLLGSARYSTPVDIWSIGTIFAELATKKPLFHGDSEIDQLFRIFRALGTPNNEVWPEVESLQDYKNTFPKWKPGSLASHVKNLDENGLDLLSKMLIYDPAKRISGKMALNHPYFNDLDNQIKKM
T1 sequence (P14635 whole entry partner): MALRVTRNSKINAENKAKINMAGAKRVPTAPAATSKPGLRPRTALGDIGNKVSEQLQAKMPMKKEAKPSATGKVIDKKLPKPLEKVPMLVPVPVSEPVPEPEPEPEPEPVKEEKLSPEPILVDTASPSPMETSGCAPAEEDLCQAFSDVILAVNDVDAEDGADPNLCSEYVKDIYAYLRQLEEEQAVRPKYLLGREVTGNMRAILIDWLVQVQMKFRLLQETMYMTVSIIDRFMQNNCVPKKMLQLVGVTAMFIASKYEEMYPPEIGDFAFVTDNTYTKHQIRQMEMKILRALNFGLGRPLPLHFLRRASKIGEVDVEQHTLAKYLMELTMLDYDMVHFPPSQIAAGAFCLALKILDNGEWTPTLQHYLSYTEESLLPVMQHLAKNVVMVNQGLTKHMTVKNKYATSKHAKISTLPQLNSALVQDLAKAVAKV

Structure (SMILES): CC[C@H](CO)Nc1nc(NCc2ccccc2)c2ncn(C(C)C)c2n1 [CYC 202]
apoptosis of malignant B-CLL cells [1]: induce in vitro apoptosis

IC50 [2]: < 1000 nM
IC50 [3]: < 1000 nM
Structure (SMILES): O=C(Nc1c[nH]nc1-c1cccnc1)c1c(F)cccc1F [Example 1, 2,6-difluoro-N-(3-pyridin-3-yl-1H-pyrazol-4-yl)-benzamide]

Structure (SMILES): CN1CC[C@H](c2c(O)cc(O)c3c(=O)cc(-c4ccccc4Cl)oc23)[C@H](O)C1 [Flavopiridol]
apoptosis of malignant B-CLL cells [1]: induce in vitro apoptosis

Structure (SMILES): Cc1cc(Nc2cc(N3CCN(C)CC3)nc(Sc3ccc(NC(=O)C4CC4)cc3)n2)n[nH]1 [VX-680]
killing of treatment-refractory primary AML cells [4]: potently killed
